These molecules were tested on Plasmodium falciparum 3D7 (assay: pEC50, asexual blood-stage growth inhibition). Conditions: 72 h.
Description: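 Held-out test set measured in the Guy lab in 2014 with the same procedure as the primary St. Jude screen. P. falciparum 3D7 blood-stage culture (2% hematocrit, 1% parasitemia) was treated with compound for 72 h at 37 °C, and growth was read by SYBR Green I fluorescence. EC50 came from a four-parameter Hill fit over a 10-point dilution series […].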

Going from `Cc1cccc(NCC(O)Cn2c3ccc(Cl)cc3c3cc(Cl)ccc32)c1` (stereo not drawn) to `COc1ccc(OC)c(NCC(O)Cn2c3ccc(Cl)cc3c3cc(Cl)ccc32)c1` (stereo not drawn), the pEC50 falls from 5.35 to under 4.82.

Going from `COc1cccc(CNCC(O)c2ccccc2)c1` (stereo not drawn) to `OC(CNCc1ccc(OCc2ccccc2)cc1)c1ccccc1` (stereo not drawn), the pEC50 rises from under 4.82 to 5.38.

Compared with `Cc1cc(OCC(O)CNC2CCCC2)ccc1Cl` (stereo not drawn), `OC(CNC1CCCC1)COc1ccccc1-c1ccccc1` (stereo not drawn) is lower in pEC50: 6.61 for the first, under 4.82 for the second.

Compared with `Oc1ccc(Br)cc1CN1CCN(c2cccc(Cl)c2)CC1`, `OCCC1CN(Cc2cc(Cl)ccc2O)CCN1Cc1ccccc1` (stereo not drawn) is lower in pEC50: 6.06 for the first, under 4.82 for the second.

First: CCOc1ccc(-c2nc3cc(C)ccc3[nH]2)cc1
Second: c1cc(-c2nc3ccccc3[nH]2)nc(-c2nc3ccccc3[nH]2)c1
The pEC50 of the first is lower: 5.12 for the first, 5.39 for the second.

`Cc1ccc(OCC(O)Cn2c(=N)n(CCN3CCOCC3)c3ccccc32)cc1` (stereo not drawn) and `N=c1n(CCN2CCOCC2)c2ccccc2n1CC(O)COc1ccc(Cl)cc1` (stereo not drawn) cannot be ordered by pEC50: under 4.82 for the first, under 4.82 for the second.

`CC(C)c1ccc(/C=C/C(=O)Nc2ccc(F)cc2)cc1` and `CC(C)c1ccc(NC(=O)/C=C/c2ccccc2)cc1` are within 0.2 log units of each other in pEC50: 5.21 for the first, 5.16 for the second.

Going from `Cc1cccc2c(C(=O)N3CCN(C/C=C/c4ccccc4)CC3)cc(-c3cccnc3)nc12` to `Cc1cccc2c(C(=O)N3CCN(Cc4ccccc4)CC3)cc(-c3cccnc3)nc12`, the pEC50 rises from under 4.82 to 5.25.

`O=S(=O)(c1ccccc1)N1CCC(CO)(Cc2ccccc2C(F)(F)F)CC1` and `COc1ccc(CC2(CO)CCN(S(=O)(=O)c3cccc(C(F)(F)F)c3)CC2)cc1` cannot be ordered by pEC50: under 4.82 for the first, under 4.82 for the second.

Going from `CCCCn1c(=N)n(CC(=O)c2ccc(Br)cc2)c2ccccc21` to `C=CCn1c(=N)n(CC(O)c2ccc(Br)cc2)c2ccccc21` (stereo not drawn), the pEC50 rises from under 4.82 to 5.62.

`CCN(CC)CC(O)COc1ccc(CNC2CCCCC2)cc1OC` (stereo not drawn) and `CCn1c2ccccc2c2cc(CNC3CCCCC3)ccc21` cannot be ordered by pEC50: under 4.82 for the first, under 4.82 for the second.

First: C=CCN1C(=O)CS/C1=C\c1sc2ccccc2[n+]1CC
Second: OCCCNCC(O)Cn1c2ccccc2c2ccccc21 (stereo not drawn)
The pEC50 of the first is higher: 5.31 for the first, under 4.82 for the second.

Going from `CCOC(=O)C1=C(C)NC2=C(C(=O)CC(c3ccc(OC)cc3)C2)C1c1cccc(F)c1` (stereo not drawn) to `CCOC(=O)C1=C(C)NC2=C(C(=O)CC(c3ccccc3)C2)C1c1cc(Cl)c(O)c(OC)c1` (stereo not drawn), the pEC50 falls from 6.13 to under 4.82.

`O=c1c(Oc2ccccc2Cl)c(C(F)(F)F)oc2c(CN3CCCCC3)c(O)ccc12` and `CCOc1ccccc1Oc1c(C(F)(F)F)oc2c(CN3CCCCCC3)c(O)ccc2c1=O` cannot be ordered by pEC50: under 4.82 for the first, under 4.82 for the second.

Compared with `Cc1ccc(OCCN(C)C(=O)c2cn(C3CCCCC3)cc(C(=O)NC(C)(C)C)c2=O)cc1`, `CCCCNC(=O)c1cn(C2CCCCC2)cc(C(=O)NC2CCN(Cc3ccccc3)CC2)c1=O` is lower in pEC50: 5.03 for the first, under 4.82 for the second.

`Clc1ccc(CN2CCN(C3CC4CCC3C4)CC2)cc1` (stereo not drawn) and `CN(C)CC(O)Cn1c2ccc(Cl)cc2c2cc(Cl)ccc21` (stereo not drawn) cannot be ordered by pEC50: under 4.82 for the first, under 4.82 for the second.

Going from `O=S(=O)(c1cccc(C(F)(F)F)c1)N1CCC(CO)(Cc2cccc(C(F)(F)F)c2)CC1` to `OC(CNCCc1ccccc1)COc1ccccc1Cl` (stereo not drawn), the pEC50 falls from 5.68 to 5.3.

`CCOc1cc(C2C(C(=O)OCCOc3ccccc3)=C(C)NC3=C2C(=O)CC(c2ccc(Cl)cc2)C3)cc(Cl)c1O` (stereo not drawn) and `COc1ccc(NCC(O)Cn2c3ccc(Cl)cc3c3cc(Cl)ccc32)c(OC)c1` (stereo not drawn) cannot be ordered by pEC50: under 4.82 for the first, under 4.82 for the second.

`Cc1cccc(NCC(O)Cn2c3ccc(Br)cc3c3cc(Br)ccc32)c1C` (stereo not drawn) and `CC(C)(CO)NCC(O)Cn1c2ccc(Cl)cc2c2cc(Cl)ccc21` (stereo not drawn) are within 0.2 log units of each other in pEC50: 5.21 for the first, 5.29 for the second.
